From patent publication US9808004B2, “Synergistic combination to improve grape color and to alter sensory characteristics of wine” (Valent BioSciences Corporation, priority 2007, dated 2017) come the findings set out here.

Series [1] has as its system red table grape cultivar 'Crimson Seedless'. The series can be described thus: Replicated field experiment on Crimson Seedless table grapes: colour development (harvestable clusters), firmness, berry weight, Brix; Synergy Index. As to conditions: for Firmness: at harvest; for Cumulative harvestable clusters: foliar, veraison plus seven days, Crimson Seedless; for Effect on cumulative harvestable cluster number (in words): applied alone, dose-dependent, 88 to 877 mg/vine; for Dose acting alone which produced the end point (QA, QB): end point 24.7 cumulative harvestable clusters. The source says:
The vineyard was 12 years old and on overhead trellis with a vine spacing of 12 ft by 7 ft (518 vines/acre). Plot size was three vines/replicate, with six replicates/treatments. The area evaluated within each plot was one center vine and two half vines on each side for a total of two vines. Applications were made seven days after veraison (beginning of berry softening). On the day of application, red coloration was developing on about 10% of the berries. […] All treatments were mixed with the adjuvant Latron B-1956 (0.05% v/v; Dow AgroSciences LLC, Indianapolis, Ind.). Treatments were applied with a backpack mist blower at 200 gallons/acre (757 l/acre).
The total grape clusters were counted on the day of application. After treatment, the plots were evaluated weekly for color development by counting the number of harvestable colored grape clusters in each plot. All harvestable colored clusters were removed 79 days later to eliminate over-mature clusters. The number of harvestable colored grape clusters was expressed as cumulative harvestable clusters (number of harvestable clusters per two vines). Average berry firmness, weight and Brix (soluble solids) were evaluated 5 days later. Evaluation samples consisted of 10 second shoulders (second lateral branch of the main rachis) from 10 different clusters selected randomly from each plot. All berries in the evaluation samples were removed, counted, and weighed. A sub-sample of 20 to 30 berries was crushed for brix (soluble solids) analysis. Brix was measured with a handheld temperature compensating Leica Refractometer. An additional 10 berries were selected randomly for berry firmness. Berry firmness was determined by a hand held Wilson Penetrometer (0 to 1000 g) mounted on a stand with a 6 mm tip.
Synergy was determined by an industrially accepted method (Kull et al., 1961, Applied Microbiology 9:538-541 and Robertson and Ramesh, 1998, U.S. Pat. No. 5,716,629). Synergy Index=Qa/QA+Qb/QB where:
Qa=dose of compound A in mg/vine, in the mixture, which produced an end point
QA=dose of compound A in mg/vine, acting alone, which produced an end point.
Qb=[…] of compound B in mg/vine, in the mixture, which produced an end point.
QB=dose of compound B in mg/vine, acting alone, which produced an end point.
Synergy, additivity, or antagonism are shown when the Synergy Index is less than one, equal to one, or greater than one, respectively.

Series [2] is described as follows: Quality of wine from treated Cabernet Sauvignon grapes (colour density, phenolics, tasting panel score). More on the design: species or system grape. As to conditions: for Wine assessment: tasting panel score from 5 characteristics (color intensity, aroma intensity, body/fullness, flavor intensity, finish), 200 ppm of each compound at veraison. As to the method: (§1) A replicated field experiment was conducted on the red wine grape cultivar ‘Cabernet Sauvignon’ in the Riverland growing region of South Australia. The vineyard was 19 years old with a vine spacing of 3 m by 3 m. The plot size was nine vines/replicate with three replicates/treatment. […] Treatments were mixed with the adjuvant Agral 600 (10 mL/100 L v/v; CropCare Australasia, Pty Ltd.).

Series [3] relates to red wine grape cultivar 'Cabernet Sauvignon'. The series can be described thus: Replicated field experiment on Cabernet Sauvignon wine grapes: grape quality at harvest. As to conditions: 200 ppm of each compound applied, foliar at veraison. Type of series: in vivo. As for the experimental part:
as §1

The mark [4] stands for this setting: 88 mg/vine of each compound applied.
Setting [5] is: 292 mg/vine of each compound applied.
The mark [6] stands for this setting: 200 ppm of each compound applied, foliar at veraison, Cabernet Sauvignon.

As to `O=P(O)(O)CCCl` [Ethephon], the figures for the Firmness in series [1] (setting [4]) and in series [1] (877 mg/vine) were 765 g and 709 g, respectively. Besides, the Cumulative harvestable clusters in series [1] (setting [4]) was found to be 9.2 no. per two vines; in series [1] (setting [5]), 15.7 no. per two vines; in series [1] (877 mg/vine), 40.2 no. per two vines. The “Effect on cumulative harvestable cluster number (in words)” value in series [1] is “increased”. The “Dose acting alone which produced the end point (QA, QB)” value in series [1] stood at 484 mg/vine. Moreover, the Wine assessment in series [2] is reported as 2.3; in series [2] (listed as ethephon), “did not affect”.
As for “(S)-5-(1-hydroxy-2,6,6,-trimethyl-4-oxo-2-cyclohexen-1-yl)-3-methyl-(2Z,4E)-pentadienoic acid [S-ABA]”, the Cumulative harvestable clusters in series [1] (setting [4]) was 11.8 no. per two vines; in series [1] (setting [5]) it was 38.0 no. per two vines; in series [1] (877 mg/vine), 43.8 no. per two vines. Further, the “Effect on cumulative harvestable cluster number (in words)” value in series [1] is listed as “increased”. The “Dose acting alone which produced the end point (QA, QB)” value in series [1] came out at 337 mg/vine. The “Anthocyanins, grapes at harvest” value in series [3] is listed as “lower than in the untreated”; in series [3] (listed as ABA) it was 0.78 mg/g. For the same compound, the Wine color density result is recorded as “lower than in the untreated” in series [2] (setting [6]) and 5.6 in series [2] (200 ppm of each compound applied, foliar at veraison, Cabernet Sauvignon, listed as ABA). The Wine phenolics in series [2] (setting [6]) was 20.2. For the same compound, the Wine assessment result in series [2] was “higher wine assessment score”; in series [2] (listed as ABA) it was 2.7.
